Results on 7 compounds are retold here after patent publication US6346540B1, “1-(1,2-disubstituted pipeidinyl)-4-substituted piperidine derivatives” (Janssen Pharmaceutica N.V., priority 1995, dated 2002).

For one series, the system named is guinea-pigs. In words: Antagonism of substance P induced plasma extravasation in guinea-pigs. Type of series: in vivo. The settings on record: lowest active dose, compound given 1 hour prior to substance P, female guinea-pigs; for LAD conjunctiva / LAD forepaws / LAD nose: 10 minutes after challenge; for LAD trachea / LAD urinary bladder: 30 minutes after challenge. The method, then:
Antagonism of Substance P Induced Plasma Extravasation in Guinea-pigs
Plasma extravasation was induced by injection of substance P (2 mg/kg) in the femoral artery of female guinea-pigs. Evans Blue dye (30 mg/kg) was injected simultaneously. The test compound or solvent was administered 1 hour prior to substance P injection. 10 minutes after challenge, the animals were checked for blue colouring (a direct measure for plasma extravasation) of the nose, the forepaws, and the conjunctiva. 30 minutes after challenge, the animals were sacrificed by CO2 gas inhalation and checked for blue coloring of the trachea and the urinary bladder. […]

What is called melting point is the temperature, or range, at which the solid turns liquid. In the case of `Cc1cc(C)cc(C(=O)N2CC[C@H](N3CCC(NC(=O)c4ccccc4N)CC3)C[C@@H]2Cc2ccccc2)c1` (racemic) [Compound 24, (±)-cis-2-amino-N-[1-[1-(3,5-dimethylbenzoyl)-2-(phenylmethyl)-4-piperidinyl]-4-piperidinyl]benzamide], the melting point stood at 121.1 °C.

The compound `COc1ccccc1C1(O)CCN([C@@H]2CCN(C(=O)c3cc(C)cc(C)c3)[C@@H](Cc3ccccc3)C2)CC1` (racemic) [Compound 17, (±)-trans-1-(3,5-dimethylbenzoyl)-4-[4-hydroxy-4-(2-methoxyphenyl)-1-piperidinyl]-2-(phenyl-methyl)piperidine] yielded a melting point of 213.1 °C.

In the case of `O=C(c1cc(C(F)(F)F)cc(C(F)(F)F)c1)N1CC[C@@H](N2CCC(C(=O)N3CCCC3)(c3ccccc3)CC2)C[C@@H]1Cc1ccc(C(F)(F)F)cc1` (racemic) [Compound 112, (±)-trans-1-[3,5-bis(trifluoromethyl)benzoyl]-4-[4-phenyl-4-(1-pyrrolidinylcarbonyl)-1-piperidinyl]-2-[[4-(trifluoromethyl)phenyl]methyl]-piperidine], in the series on guinea-pigs, the LAD conjunctiva stood at 2.5 mg/kg, the LAD forepaws came to 2.5 mg/kg, the LAD nose was 2.5 mg/kg and the LAD trachea came out at 2.5 mg/kg. For the same compound, in the series on guinea-pigs, the LAD urinary bladder turned out to be 2.5 mg/kg.

With `O=C(c1cc(C(F)(F)F)cc(C(F)(F)F)c1)N1CC[C@@H](N2CCC(n3c(=O)[nH]c4ccccc43)CC2)C[C@@H]1Cc1ccccc1` (racemic) [Compound 43, (±)-trans-1-[3,5-bis(trifluoromethyl)benzoyl]-4-[4-(2,3-dihydro-2-oxo-1H-benzimidazol-1-yl)-1-piperidinyl]-2-(phenylmethyl)piperidine], the melting point was found to be 156.1 °C. In the series with guinea-pigs, this compound yielded an LAD conjunctiva of 2.5 mg/kg, an LAD forepaws of 2.5 mg/kg, an LAD nose of 2.5 mg/kg and an LAD trachea of 10 mg/kg. In the series on guinea-pigs, this compound gave an LAD urinary bladder of 10 mg/kg.

Turning to `Cc1cc(C)cc(C(=O)N2CC[C@@H](N3CCC(OC(=O)c4cc(Cl)cc(Cl)c4)CC3)C[C@@H]2Cc2ccccc2)c1` (racemic) [Compound 33, (±)-trans-1-[1-(3,5-dimethylbenzoyl)-2-(phenylmethyl)-4-piperidinyl]-4-piperidinyl 3,5-dichloro-benzoate], the melting point came to 83.3 °C.

The compound `Cc1cc(C)cc(C(=O)N2CC[C@@H](N3CCC(NCCc4ccccc4)CC3)C[C@@H]2Cc2ccccc2)c1` (racemic) [Compound 27, (±)-trans-1-(3,5-dimethylbenzoyl)-4-[4-[(2-phenylethyl)amino]-1-piperidinyl]-2-(phenylmethyl)piperidine] displayed a melting point of 67.8 °C.

Compound `Cc1cc(C)cc(C(=O)N2CC[C@H](N3CCC(C(=O)O)(c4ccccc4)CC3)C[C@@H]2Cc2ccccc2)c1` (racemic) showed a melting point of 259.1 °C.
